Experimental data as given in US11033603B2, “Method for treating ocular diseases” (priority 2019, dated 2021).
“Also recorded” adds a separate entry of the source.

How the values were obtained:
[1] = system: VEGF induced angiogenesis; assay: In vivo Matrigel plug angiogenesis assay; design: species or system B57l/6 mice; conditions: mice; for VEGF induced angiogenesis in Matrigel plugs (images, FIG. 1): plugs taken out on Day 7; for Efficacy in inhibition of VEGF induced angiogenesis by hemoglobin level (FIG. 2), compared with Sorafenib: hemoglobin by Drabkin's reagent kit, Day 7
Source text: In Vivo Matrigel Plug Angiogenesis Assay
Matrigel plug is made from a gelatinous protein mixture secreted by Engelbreth-Holm-Swarm (EHS) mouse sarcoma cells (produced and marketed by Corning Life Sciences and BD Biosciences). Matrigel resembles the complex extracellular environment found in many tissues and is used by cell biologists as a substrate (basement membrane matrix) for culturing assay.
The test animals were 5 to 8-week-aged B57l/6 mice. The Matrigel was mixed with PBS at a ratio of 4:1 to obtain the Matrigel plug. The mice were administered with the Matrigel plugs containing 30 IU heparin and VEGF 150 ng/ml (500 ul/mouse), and then divided into four groups (4 mice in one group), treated with Beauvericin i.p. or orally (GYT-088 Group), Sorafenib (Sorafenib Group) as a positive control, VEGF alone (Vehicle), and without any treatment (Ctrl). After one day, the animals were administered with the sorafenib i.p. at a dosage of 30 mg/kg or Beauvericin i.p. at a dosage of 2.4 mg/kg (0.1c.c./mice/day), or were orally administered with the Beauvericin at a dosage of 24 mg/kg once per day for six days. On Day 7, the animals were sacrificed and the Matrigel plugs were taken out for observation of angiogenesis. The hemoglobin of each mouse was also measured by Drabkin's reagent kit.

[2] = system: naturally-occurring diabetic macular edema in rhesus monkeys; assay: Fundus photography (FP) of NPDR related changes in spontaneous DME rhesus monkeys; format: in vivo, Macaca mulatta (Rhesus Macaque)
Source text: (§1) Evaluation of Efficacy of beauvericin at different doses for 60 days on improving naturally-occurring diabetic macular edema in rhesus monkeys, providing a basis for clinical trial dose design and safety study.
(§2) Macaca mulatta (Rhesus Macaque) are used in the evaluation.
Secondary Endpoints and Safety Parameters: • (1) Fundus photography (FP). To detect changes of hemorrhage, exudate or vessel lesion before and after treatment; and • (2) Drug effect on metabolism and lipid profiles, liver and kidney function.
Non-human primates (NHPs) are extremely similar to humans in physiological function and structure of eyes. […]
Inclusion Criteria • (1) Female, age 13-18 years (equals to 40-60 years old in human adults), 6-7 kg; • (2) Diabetic duration: over 3 years; • (3) DME of single/both eyes; • (4) DME: the retinal thickness measured by Heidelberg Spectralis OCT in recent half year and diagnosed by FP/FFA with Kowa VX-20 Fundus Camera; • (5) CRT≥260 μm (Central Foveal Thickness) and/or Average Thickness of ETDRS regions≥319 μm. […] Nondiabetic monkey: Average thickness of the retina in nondiabetic animals was 192±11 μm at the fovea, and 307±15 and 328±13 measured at a distance of 1.5 mm from fovea on the temporal and nasal sides, respectively. […]

[3] = system: naturally-occurring diabetic macular edema in rhesus monkeys; assay: Retinal thickness by OCT in spontaneous DME rhesus monkeys; format: in vivo, Macaca mulatta (Rhesus Macaque); conditions: for Macular Central Thickness, left eye / Macular Central Thickness, right eye / Fovea Thickness, left eye / Fovea Thickness, right eye: monkey #2003 (NPDR); for Macular Central Thickness, left eye: baseline 204; for Macular Central Thickness, right eye: baseline 210; for Fovea Thickness, left eye: baseline 257; for Fovea Thickness, right eye: baseline 260
Procedure: as §1, §2
Retinal Thickness by OCT. To Quantify Retinal Thickness Before and after Treatment.
Retinal thickness is evaluated by 2 methods using OCT: (1) at the fovea and 1.5 mm on either side of it (three point method), and (2) using a 52-point grid to determine the fraction of macula that had thicknesses in different thickness groupings (250-300, 301-350, 351-400 μm, etc.). This method was developed by the Primed team in collaboration with Prof. Dr. Timothy Kern, a renowned diabetic retinopathy expert from Case Western Reserve University. Refer to the ARVO 2018 Poster. Assessment of macular thickening in spontaneously diabetic rhesus monkeys.
Inclusion Criteria • (1) Female, age 13-18 years (equals to 40-60 years old in human adults), 6-7 kg; • (2) Diabetic duration: over 3 years; • (3) DME of single/both eyes; • (4) DME: the retinal thickness measured by Heidelberg Spectralis OCT in recent half year and diagnosed by FP/FFA with Kowa VX-20 Fundus Camera; • (5) CRT≥260 μm (Central Foveal Thickness) and/or Average Thickness of ETDRS regions≥319 μm. (Retinal Thickening is defined by Mean and SD of CRT and ETDRS thickness of normal monkeys). The retinal thickening is defined as thickness that exceeded the normal mean by 2 standard deviations. Nondiabetic monkey: Average thickness of the retina in nondiabetic animals was 192±11 μm at the fovea, and 307±15 and 328±13 measured at a distance of 1.5 mm from fovea on the temporal and nasal sides, respectively. This method was developed by the Primed team in collaboration with Prof. Dr. Timothy Kern, a renowned diabetic retinopathy expert from Case Western Reserve University. Refer to the ARVO 2018 Poster. Assessment of macular thickening in spontaneously diabetic rhesus monkeys; and • (6) with/without vessel leakage or non-perfusion area.
6 spontaneous DME rhesus monkeys (with medical record within one year) will be provided and 4 out of 6 monkeys will be enrolled in the Pre-study period (four weeks) for FA, FP, OCT and slit lamp examination as well as blood biochemistry before treatment. 4 Monkeys will be divided into two groups based on retinal thickness by OCT: • (1) Group 1, vehicle group, N=1; • (2) Group 2, test article group, N=3; (Route of administration: oral administration, once a day; Dosage: TBD).
Retinal thickness includes CST and ETDRS thickness. […]

[4] = Drug observed in the eyes after oral administration (FIG. 3); format: in vivo
[5] = monkey #2003, Day 14 versus baseline
[6] = monkey #2003, Day 56 versus baseline

With `CNC(=O)c1cc(Oc2ccc(NC(=O)Nc3ccc(Cl)c(C(F)(F)F)c3)cc2)ccn1` [Sorafenib, reference compound] the “VEGF induced angiogenesis in Matrigel plugs (images, FIG. 1)” value ([1]; Sorafenib i.p. 30 mg/kg, positive control) was “inhibited”.
For `CC(C)[C@H]1OC(=O)[C@H](Cc2ccccc2)N(C)C(=O)[C@@H](C(C)C)OC(=O)[C@H](Cc2ccccc2)N(C)C(=O)[C@@H](C(C)C)OC(=O)[C@H](Cc2ccccc2)N(C)C1=O` [GYT-088, beauvericin], the “NPDR related changes, FP” value ([2]; monkey #2003, D28, oral, once a day, baseline: hemorrhages) was “improved”, the “NPDR changes before and after dosing by FP” value ([2]; other animals of GYT-088 group (not #2003), any time points) was “No significant changes” and the “Macular Central Thickness, left eye” value ([3]; D14) was 197 μm. For the same compound, the “Macular Central Thickness, right eye” value ([3]; D14) was 202 μm, the “Fovea Thickness, left eye” value ([3]; D14) was 249 μm and the “Fovea Thickness, right eye” value ([3]; D14) was 251 μm. The “Macular Central Thickness, left eye” value ([3]; D28) was 199 μm, the “Macular Central Thickness, right eye” value ([3]; D28) was 206 μm and the “Fovea Thickness, left eye” value ([3]; D28) was 253 μm. For the same compound, the “Fovea Thickness, right eye” value ([3]; D28) was 255 μm, the “Macular Central Thickness, left eye” value ([3]; D56 (Double dosing)) was 200 μm and the “Macular Central Thickness, right eye” value ([3]; D56 (Double dosing)) was 202 μm. The “Fovea Thickness, left eye” value ([3]; D56 (Double dosing)) was 254 μm, the “Fovea Thickness, right eye” value ([3]; D56 (Double dosing)) was 255 μm and the “Reduction of central macular thickness (CMT), left eye” value [3, 5] was 7 μm. The “Reduction of central macular thickness (CMT), right eye” value [3, 5] was 8 μm, the “Reduction of fovea thickness, left eye” value [3, 5] was 8 μm and the “Reduction of fovea thickness, right eye” value [3, 5] was 9 μm. The “Reduction of central macular thickness, left eye” value [3, 6] was 6 μm, the “Reduction of central macular thickness, right eye” value [3, 6] was 8 μm and the “Reduction of macular thickness, left eye” value [3, 6] was 3 μm. For the same compound, the “Reduction of macular thickness, right eye” value [3, 6] was 5 μm, the “Efficacy in Diabetic Macular Edema (conclusion)” value ([3]; rhesus monkeys, oral, once a day) was “provided an efficacy in Diabetic Macular Edema” and the “Crossing of blood-brain barrier (BBB) and blood-retinal barrier (BRB) into extravascular space of retina and vitreous body” value [4] was “can be cross the blood-brain barrier (BBB) and particularly the blood-retinal barrier (BRB)”. For the same compound, the “Presence of test drug in the eyes of the animal” value [4] was “observed in the eyes”, the “VEGF induced angiogenesis in Matrigel plugs (images, FIG. 1)” value ([1]; Beauvericin i.p. 2.4 mg/kg once per day for six days) was “inhibited” and the “Efficacy in inhibition of VEGF induced angiogenesis by hemoglobin level (FIG. 2), compared with Sorafenib” value ([1]; listed as Beauvericin) was “higher efficacy”. For the same compound, the “Efficacy in inhibition of VEGF induced angiogenesis by hemoglobin level (FIG. 2), compared with Sorafenib” value ([1]; listed as beauvericin) was “higher efficacy; also recorded: even better than Sorafenib”.
